This is an account of results in patent publication US8852554B2, “Radiolabelled PDE10 ligands” (Janssen Pharmaceutica NV, priority 2009, dated 2014).

Series [1] addresses T1, Rat recombinant PDE10A (rPDE10A) (Rattus norvegicus, UniProt Q9QYJ6).
T1 construct: made in house; host or cells: Sf9 insect cells (baculovirus)
T1 sequence (Q9QYJ6 1-794): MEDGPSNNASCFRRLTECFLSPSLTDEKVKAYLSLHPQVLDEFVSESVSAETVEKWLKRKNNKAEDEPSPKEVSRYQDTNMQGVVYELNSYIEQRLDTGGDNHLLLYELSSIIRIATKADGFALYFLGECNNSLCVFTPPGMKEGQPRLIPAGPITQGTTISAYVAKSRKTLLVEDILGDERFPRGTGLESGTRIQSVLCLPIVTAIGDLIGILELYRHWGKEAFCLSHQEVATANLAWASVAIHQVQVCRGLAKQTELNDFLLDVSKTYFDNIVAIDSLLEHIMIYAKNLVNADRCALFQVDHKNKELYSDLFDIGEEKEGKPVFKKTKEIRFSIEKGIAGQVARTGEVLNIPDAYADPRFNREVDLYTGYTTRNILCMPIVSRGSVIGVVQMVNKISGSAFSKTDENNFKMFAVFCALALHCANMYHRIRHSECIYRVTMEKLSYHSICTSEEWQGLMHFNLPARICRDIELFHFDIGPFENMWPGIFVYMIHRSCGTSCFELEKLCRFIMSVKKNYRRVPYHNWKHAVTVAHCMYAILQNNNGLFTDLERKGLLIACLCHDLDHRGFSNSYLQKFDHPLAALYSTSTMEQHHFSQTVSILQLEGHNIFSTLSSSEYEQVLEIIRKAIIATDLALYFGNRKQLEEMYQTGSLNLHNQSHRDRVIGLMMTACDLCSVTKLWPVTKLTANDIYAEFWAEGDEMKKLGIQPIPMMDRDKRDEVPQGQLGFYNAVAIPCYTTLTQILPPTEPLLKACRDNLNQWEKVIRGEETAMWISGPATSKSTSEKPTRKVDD
Description: rat PDE10A2-cAMP inhibition, in vitro SPA assay. Format: biochemical. To be noted: 60 nM cAMP substrate. The method, then:
Rat recombinant PDE10A (rPDE10A) was expressed in Sf9 cells using a recombinant rPDE10A baculovirus construct. Cells were harvested after 48 h of infection and the rPDE10A protein was purified by metal chelate chromatography on Ni-sepharose 6FF. Tested compounds were dissolved and diluted in 100% DMSO to a concentration 100 fold of the final concentration in the assay. Compound dilutions (0.4 μl) were added in 384 well plates to 20 μl of incubation buffer (50 mM Tris pH 7.8, 8.3 mM MgCl2, 1.7 mM EGTA). 10 μl of rPDE10A enzyme in incubation buffer was added and the reaction was started by addition of 10 μl substrate to a final concentration of 60 nM cAMP and 0.008 μCi 3H-cAMP. The reaction was incubated for 60 minutes at room temperature. […] After sedimentation of the beads during 30 minutes, the radioactivity was measured in a Perkin Elmer Topcount scintillation counter and results were expressed as cpm. For blanc values the enzyme was omitted from the reaction and replaced by incubation buffer. Control values were obtained by addition of a final concentration of 1% DMSO instead of compound.

Where a name gives a salt, the structure may show the parent alone.

Take `Cc1cccc(COc2ccc(-c3nn(CCF)cc3-c3ccncc3)cc2)n1` (as salt: hydrochloride) [Compound B1, 2-[[4-[1-(2-fluoroethyl)-4-(4-pyridinyl)-1H-pyrazol-3-yl]phenoxy]methyl]-6-methyl-pyridine.dihydrochloride]: the melting point came out at 227.22 °C.

Take `Cc1cccc(COc2ccc(-c3nn(CCCF)cc3-c3ccncc3)cc2)n1` (as salt: hydrochloride) [Compound B2, 2-[[4-[1-(3-fluoropropyl)-4-(4-pyridinyl)-1H-pyrazol-3-yl]phenoxy]methyl]-6-methyl-pyridine.hydrochloride]: the melting point is 106.51 °C.

For `FCCn1cc(-c2ccncc2)c(-c2ccc(OCc3cccc(Br)n3)cc2)n1` (as salt: succinate) [Compound B6, 2-bromo-6-[[4-[1-(2-fluoroethyl)-4-(4-pyridinyl)-1H-pyrazol-3-yl]phenoxy]methyl]-pyridine.0.75 succinate], the melting point was found to be 108.78 °C.

For `FCCn1cc(-c2ccncc2)c(-c2ccc(OCc3cccc(C4CC4)n3)cc2)n1` (as salt: succinate) [Compound B8, 2-Cyclopropyl-6-[[4-[1-(2-fluoroethyl)-4-(4-pyridinyl)-1H-pyrazol-3-yl]phenoxy]methyl]-pyridine.succinate], the melting point was found to be 91.25 °C.

Molecule `FCCOc1cccnc1COc1ccc(-c2nn(CC(F)(F)F)cc2-c2ccncc2)cc1` (as salt: succinate) [Compound B10, 3-(2-fluoroethoxy)-2-[[4-[4-(4-pyridinyl)-1-(2,2,2-trifluoroethyl)-1H-pyrazol-3-yl]phenoxy]methyl]-pyridine.succinate] yielded a melting point of 140.72 °C.

`FCCCn1cc(-c2ccncc2)c(-c2ccc(OCc3ncccc3OCCF)cc2)n1` (as salt: succinate) [Compound B13, 3-(2-fluoroethoxy)-2-[[4-[1-(3-fluoropropyl)-4-(4-pyridinyl)-1H-pyrazol-3-yl]phenoxy]methyl]pyridine.succinate]: the melting point came out at 118.38 °C.

Regarding `COc1ccc(COc2ccc(-c3nn(CCCF)cc3-c3ccncc3)cc2)nc1` (as salt: succinate) [Compound B14, 2-[[4-[1-(3-fluoropropyl)-4-(4-pyridinyl)-1H-pyrazol-3-yl]phenoxy]methyl]-5-methoxy-pyridine.0.5 succinate], the melting point came to 126.64 °C.

In turn, `COc1cccnc1COc1ccc(-c2nn(CCF)cc2-c2ccncc2)cc1` (as salt: succinate) [Compound B16, 2-[[4-[1-(2-fluoroethyl)-4-(4-pyridinyl)-1H-pyrazol-3-yl]phenoxy]methyl]-3-methoxy-pyridine.succinate] had a melting point of 178.95 °C.

Turning to `Cc1cccc(COc2ccc(-c3nn(CCF)cc3-c3ccncc3)cc2)n1` [Compound B1, 2-[[4-[1-(2-fluoroethyl)-4-(4-pyridinyl)-1H-pyrazol-3-yl]phenoxy]methyl]-6-methyl-pyridine.dihydrochloride], the pIC50 in series [1] came to 8.6.

On to `Cc1cccc(COc2ccc(-c3nn(CCCF)cc3-c3ccncc3)cc2)n1` [Compound B2, 2-[[4-[1-(3-fluoropropyl)-4-(4-pyridinyl)-1H-pyrazol-3-yl]phenoxy]methyl]-6-methyl-pyridine.hydrochloride], for which the pIC50 in series [1] worked out at 7.7.

For `Cc1cnc(COc2ccc(-c3nn(CCF)cc3-c3ccncc3)cc2)c(C)c1` [Compound B3, 2-[[4-[1-(2-fluoroethyl)-4-(4-pyridinyl)-1H-pyrazol-3-yl]phenoxy]methyl]-3,5-dimethyl-pyridine.succinate], the IC50 in series [1] is 1.62 nM.

Turning to `FCCn1cc(-c2ccncc2)c(-c2ccc(OCc3cccc(Br)n3)cc2)n1` [Compound B6, 2-bromo-6-[[4-[1-(2-fluoroethyl)-4-(4-pyridinyl)-1H-pyrazol-3-yl]phenoxy]methyl]-pyridine.0.75 succinate], in series [1], the IC50 was 9.77 nM.

Take `FCCn1cc(-c2ccncc2)c(-c2ccc(OCc3cccc(C(F)(F)F)n3)cc2)n1` [Compound B7, 2-[[4-[1-(2-fluoroethyl)-4-(4-pyridinyl)-1H-pyrazol-3-yl]phenoxy]methyl]-6-(trifluoromethyl)-pyridine]: the IC50 in series [1] was 110 nM.

Consider `FCCn1cc(-c2ccncc2)c(-c2ccc(OCc3cccc(C4CC4)n3)cc2)n1` [Compound B8, 2-Cyclopropyl-6-[[4-[1-(2-fluoroethyl)-4-(4-pyridinyl)-1H-pyrazol-3-yl]phenoxy]methyl]-pyridine.succinate], for which the IC50 in series [1] was 33.1 nM.

`FCCOc1cccnc1COc1ccc(-c2nn(CC(F)(F)F)cc2-c2ccncc2)cc1` [Compound B10, 3-(2-fluoroethoxy)-2-[[4-[4-(4-pyridinyl)-1-(2,2,2-trifluoroethyl)-1H-pyrazol-3-yl]phenoxy]methyl]-pyridine.succinate]: the IC50 in series [1] was 6.31 nM.

For `FCCOc1ccc(COc2ccc(-c3nn(CC(F)(F)F)cc3-c3ccncc3)cc2)nc1` [Compound B11, 5-(2-fluoroethoxy)-2-[[4-[4-(4-pyridinyl)-1-(2,2,2-trifluoroethyl)-1H-pyrazol-3-yl]phenoxy]methyl]-pyridine], in series [1], the IC50 was 107 nM.

For the molecule `FCCCn1cc(-c2ccncc2)c(-c2ccc(OCc3ncccc3OCCF)cc2)n1` [Compound B13, 3-(2-fluoroethoxy)-2-[[4-[1-(3-fluoropropyl)-4-(4-pyridinyl)-1H-pyrazol-3-yl]phenoxy]methyl]pyridine.succinate], in series [1], the IC50 is 13.8 nM.

As for `COc1ccc(COc2ccc(-c3nn(CCCF)cc3-c3ccncc3)cc2)nc1` [Compound B14, 2-[[4-[1-(3-fluoropropyl)-4-(4-pyridinyl)-1H-pyrazol-3-yl]phenoxy]methyl]-5-methoxy-pyridine.0.5 succinate], in series [1], the IC50 was 14.5 nM.

Turning to `COc1cccnc1COc1ccc(-c2nn(CCF)cc2-c2ccncc2)cc1` [Compound B16, 2-[[4-[1-(2-fluoroethyl)-4-(4-pyridinyl)-1H-pyrazol-3-yl]phenoxy]methyl]-3-methoxy-pyridine.succinate], the IC50 in series [1] was 3.72 nM.

As to `FCCOc1cccnc1COc1ccc(-c2nn(CCF)cc2-c2ccncc2)cc1` [Compound B17, 3-(2-fluoroethoxy)-2-[[4-[1-(2-fluoroethyl)-4-(4-pyridinyl)-1H-pyrazol-3-yl]phenoxy]methyl]pyridine.succinate], the IC50 in series [1] is 3.8 nM.

As to `FCCn1cc(-c2ccncc2)c(-c2ccc(OCc3ncccc3F)cc2)n1` [Compound B18, 3-fluoro-2-[[4-[1-(2-fluoroethyl)-4-(4-pyridinyl)-1H-pyrazol-3-yl]phenoxy]methyl]-pyridine.1.2 succinate], the 50% inhibitory concentration (IC50) in series [1] is 16.2 nM.

As to `N#Cc1ccc(COc2ccc(-c3nn(CCF)cc3-c3ccncc3)cc2)nc1` [Compound B21, 6-[[4-[1-(2-fluoroethyl)-4-(4-pyridinyl)-1H-pyrazol-3-yl]phenoxy]methyl]-3-pyridinecarbonitrile], in series [1], the pIC50 was 7.1.

As for `FCCn1cc(-c2ccncc2)c(-c2ccc(OCc3ccc(C4CC4)cn3)cc2)n1` [Compound B23, 5-cyclopropyl-2-[[4-[1-(2-fluoroethyl)-4-(4-pyridinyl)-1H-pyrazol-3-yl]phenoxy]methyl]-pyridine], the IC50 in series [1] was 34.7 nM.

Consider `COc1cccc(COc2ccc(-c3nn(CCF)cc3-c3ccncc3)cc2)n1` [Compound B24, 2-[[4-[1-(2-fluoroethyl)-4-(4-pyridinyl)-1H-pyrazol-3-yl]phenoxy]methyl]-6-methoxy-pyridine.succinate], for which the IC50 in series [1] was 2.95 nM.

Consider `CCOc1cccc(COc2ccc(-c3nn(CCF)cc3-c3ccncc3)cc2)n1` [Compound B25, 2-ethoxy-6-[[4-[1-(2-fluoroethyl)-4-(4-pyridinyl)-1H-pyrazol-3-yl]phenoxy]methyl]-pyridine.succinate], for which the IC50 in series [1] is 20.9 nM.

As to `Cc1cnc(COc2ccc(-c3nn(CCF)cc3-c3ccncc3)cc2)c(C)c1C` [Compound B28, 2-[[4-[1-(2-fluoroethyl)-4-(4-pyridinyl)-1H-pyrazol-3-yl]phenoxy]methyl]-3,4,5-trimethyl-pyridine.succinate], the IC50 in series [1] is 4.37 nM.

As a reminder, the melting point is the temperature, or range, at which the solid turns liquid. As usually defined, the pIC50 is the IC50 on a negative log10 scale, so that one unit is a factor of ten. Broadly, the IC50 is the point on the concentration scale where inhibition reaches its midpoint.
